From patent publication US20210311050A1, “TARGETING PATHOGENIC B CELLS IN AUTOIMMUNITY” (Research Foundation for the STATE UNIVERSITY OF NEW YORK, priority 2018, published 2021)
Entries after “also recorded” stand apart in the source; their conditions may differ.

Columns and labels:
CD11c^+ CD19^+ B cells [1] = assay: In vitro agonist treatment of T cell-depleted spleen cells from E. muris-infected mice; assay type: cell-based; details: 48 hours
Description: FIGS. 6A-6B. In vitro agonist treatment eliminated T-bet^+ B cells. CD11c and CD19 flow cytometry data using B cells isolated from (A) vehicle-treated splenocytoes and (B) A2aR agonist (CGS21680)-treated splenocytes. C57BL/6 mice were infected with E. muris; 30 days post-infection, T cell-depleted spleen cells were incubated in cell culture medium treated with vehicle, or CGS21680 (1 μM), for 48 hours. Approximately 50% of the CD11c^+ CD19^+ B cells were depleted by the agonist.
FIGS. 7A-7B. In vitro Regadenoson treatment eliminated T-bet^+ B cells. (A) vehicle treated splenocytes and (B) agonist (Regadenoson)-treated splenocytes. Mice were infected with E. muris; 44 days post-infection, T cell-depleted spleen cells were incubated in medium with or without Regadenson (10 μM), for 48 hours. Approximately 30% of the CD11c^+ CD19^+ B cells were depleted by Regadenoson in vitro.

CD11c^+ T-bet^+ B cells = assay: Depletion of splenic CD11c+ T-bet+ B cells in E. muris-infected mice (flow cytometry); assay type: in vivo, C57BL/6 mice
CD11c^+ CD19^+ B cells [2] = assay: Depletion of T-bet+ B cells in lupus-prone MRL/lpr mice (flow cytometry of spleen cells); assay type: in vivo, MRL/lpr (MRL/MpJ-Fas^lpr/J) mice; details: 12 to 13 week old MRL/lpr mice, treated every other day for 7 days
Description: FIGS. 5A-5B. Agonist treatment eliminated T-bet^+ B cells in lupus-prone MRL/lpr (MRL/MpJ-Fas^lpr/J) mice. CD11c and CD19 flow cytometry data from (A) vehicle-treated mice and (B) A2aR agonist (CGS21680)-treated mice. 12 to 13 week old MRL/lpr mice were treated with vehicle, or CGS21680, every other day for 7 days, at which time spleen cells were analyzed by flow cytometry.

[3] = tested on: T-bet+ Age-related B cells (ABCs); assay: Depletion of T-bet+ Age-related B cells (ABCs) in aged mice; assay type: in vivo; details: administered at day 0, 4 and 6; sacrificed day 7; flow cytometry
Description: FIG. 8A-8C. T-bet+ Age-related B cells (ABCs) were depleted in aged mice upon CGS21680 treatment. CD11c and CD19 flow cytometry data from (A) vehicle-treated and (B) A2aR agonist-(CGS21680) treated aged mice. CGS21680 was administered at day 0, 4 and 6. Mice were sacrificed on day 7 and ABCs were identified using flow cytometry. (C) Quantification of the data in (A) and (B).

[4] = tested on: anti-nuclear antibodies (ANAs); assay: Anti-nuclear antibodies in lupus-prone MRL/lpr mice; assay type: in vivo; details: once weekly from 9 weeks of age, sacrificed at 15 weeks of age
Excerpt: FIG. 9. […] CGS21680-treated mice had much lower amounts of anti-nuclear antibodies (ANAs). ANAs are a signature of disease in lupus mice.

[5] = tested on: CD11c^+ CD19^+ B cells (also T-bet^+); assay: Agonist treatment of E. muris-infected wild-type versus B cell-specific A2aR KO mice (flow cytometry of spleen cells); assay type: in vivo; details: 30 days post-infection, treated every other day for 7 days
Description: FIGS. 3A-3B. […] CD11c and CD19 flow cytometry data from (A) Wild type mice (B) mice that lacked A2aR only on B cells. The mice were infected with E. muris; 30 days post-infection wild-type or MB1-cre×A2aR^fl/fl (B cell-specific A2aR KO) mice were treated with CGS21680 every other day for 7 days, at which time spleen cells were analyzed by flow cytometry. CD11c^+ CD19^+ B cells (also T-bet^+) were eliminated in the wild-type mice (A), but not in the B cell-specific A2aR KO mice (B). The data shown are representative of several experiments.

[6] = tested on: CD11c^+ CD19^+ or T-bet^+ CD19^+ B cells; assay: Depletion of T-bet+ B cells in lupus-prone SLE1.2.3 mice (flow cytometry of spleen cells); assay type: in vivo, SLE1.2.3 (B6.NZMs^Sle1/Sle2/Sle3) mice; details: nine-month old SLE mice, treated every other day for 7 days, n=6
Description: FIGS. 4A-4D. Agonist treatment eliminated T-bet+ B cells in lupus-prone SLE1.2.3 (B6.NZMs^Sle1/Sle2/Sle3) mice. (A) CD11c and CD19 flow cytometry data from vehicle treated mice. (B) CD11c and CD19 flow cytometry data from A2aR agonist (CGS21680)-treated mice. (C) T-bet and CD19 flow cytometry data from vehicle-treated mice. (D) T-bet and CD19 flow cytometry data from agonist (CGS21680)-treated mice. Nine-month old SLE mice were treated with vehicle, or CGS21680, every other day for 7 days, at which time spleen cells were analyzed by flow cytometry. CD11c^+ CD19^+ ((A) and (B)) or T-bet^+ CD19^+ ((C) and (D)) B cells were analyzed. […] The data shown are representative of an experiment where n=6.

In the case of `CNC(=O)c1cnn(-c2nc(N)c3ncn([C@@H]4O[C@H](CO)[C@@H](O)[C@H]4O)c3n2)c1` [Regadenoson], the “CD11c^+ CD19^+ B cells depleted in vitro” value (CD11c^+ CD19^+ B cells [1]; 10 μM, 44 days post-infection) is reported as “Approximately 30%” and the “number of Tbet^+ B cells in splenocytes” value (CD11c^+ T-bet^+ B cells; 2.5 mg/kg every other day for 7 days from day 30 post-infection, analysed day 37, P=0.0049 vs vehicle) is reported as “reduced”.

For `CCNC(=O)[C@H]1O[C@@H](n2cnc3c(N)nc(NCCc4ccc(CCC(=O)O)cc4)nc32)[C@H](O)[C@@H]1O` [CGS21680], the “CD11c^+ CD19^+ B cells in spleen” value (CD11c^+ CD19^+ B cells [2]) was “Most of the CD11c^+ CD19^+ B cells were eliminated”, the “CD11c^+ CD19^+ B cells depleted in vitro” value (CD11c^+ CD19^+ B cells [1]; 1 μM, 30 days post-infection) was “Approximately 50%” and the “T-bet+ Age-related B cells (ABCs) in aged mice” value [3] was “depleted”. For the same molecule, the “CD11c^+ T-bet^+ B cells in spleen after cessation of treatment” value (CD11c^+ T-bet^+ B cells; 2.5 mg/kg daily for 7 days from day 30, spleen harvested 12 days following cessation (day 48), p<0.0001 vs vehicle) was “prolonged depletion; also recorded: Significant cell depletion”, the “CD11c^+ T-bet^+ B cells in spleen after agonist treatment” value (CD11c^+ T-bet^+ B cells; E. muris infection day 0, 2.5 mg/kg daily for 7 days from day 30, spleen harvested day 37, p<0.0001 vs vehicle, 2.5 mg/kg) was “largely absent; also recorded: major reduction” and the “amounts of anti-nuclear antibodies (ANAs)” value [4] was “much lower”. For the same molecule, the “CD11c^+ CD19^+ B cells (also T-bet^+) in spleen, B cell-specific A2aR KO mice” value ([5]; MB1-cre×A2aR^fl/fl mice) was “did not eliminate”, the “CD11c^+ CD19^+ B cells (also T-bet^+) in spleen, wild-type mice” value ([5]; wild-type mice) was “eliminated” and the “CD11c^+ CD19^+ or T-bet^+ CD19^+ B cells in spleen” value [6] was “largely eliminated”.
